Four molecules from US11999806B2, “Broad-spectrum polypeptide against enterovirus and application thereof” (WUHAN INSTITUTE OF VIROLOGY, CHINESE ACADEMY OF SCIENCES, priority 2018, dated 2024) can be followed below.

Values joined by “and” are separate entries in the source; they are usually repeats but may differ in a detail not shown here. Equal entries are not always repeated. Where two headings read alike, the source gives them in different places. Non-standard residues stand in square brackets, D forms with d. Residues, ends and D or L forms follow the SMILES beside them. No end group written: not given here. Where only a bound is given, the exact number is not on record here.

As a reminder, the viability is a read-out of living cells in per cent, often relative to untreated cells.

Series [1] can be described thus: Cytotoxicity by CCK-8 in RD cells. It counts as cell-based. The following applies: human; for viability at 24 h, 0.01 µM: 0.01 μM polypeptide; for viability at 24 h, 0.1 µM: 0.1 μM polypeptide; for viability at 24 h, 1 µM: 1 μM polypeptide; for viability at 24 h, 10 µM: 10 μM polypeptide; for viability at 24 h, 20 µM: 20 μM polypeptide; for viability at 24 h, 20 µM / viability at 24 h, 30 µM / viability at 24 h, 40 µM / viability at 24 h, 50 µM: 24 h (Table 6); for viability at 24 h, 30 µM: 30 μM polypeptide; for viability at 24 h, 40 µM: 40 μM polypeptide; for viability at 24 h, 50 µM: 50 μM polypeptide. How it is done: (§1) The experiment was performed as follows. • (1) RD cells were plated in a 96-well plate at 100 μl per well. • (2) After the cells reached 70%-80% confluence, the MEM medium containing 10% serum was replaced with a MEM medium containing 2% serum. Then, polypeptide P2 was added to generate gradient concentrations of 0.01 μM, 0.1 μM, 1 μM, 10 μM, and 100 μM (final concentration), respectively. • (3) The test was performed 24 hours after the addition of the polypeptide, and 10 μl of viable cell detection reagent CCK-8 was added to each well and mixed well. • (4) The plate was incubated at 37° C. for 2 h. • (5) The absorbance value at OD450 was measured with a microplate reader.
as §1, with “P1” for “P2”, “concentrations),” for “concentration),”
(§2) RD cells were used to test the antiviral effect of polypeptide P1. When RD cells reached 80% confluence, polypeptide P1 was added at concentrations of 0 μM (control group), 0.01 μM, 0.1 μM, 1 μM, 10 μM, and 100 μM, respectively. Three parallel wells were used for each concentration. The test was carried out 24 hours later, and the cell viability was detected using the CCK-8 kit.
as §1, with “3A-TAT-EP” for “P2”, “concentrations),” for “concentration),”
(§3) RD cells were used to test the antiviral effect of polypeptide 3A-TAT-EP. When RD cells reached 80% confluence, polypeptide 3A-TAT-EP was added at concentrations of 0 μM (control group), 0.01 μM, 0.1 μM, 1 μM, 10 μM, and 100 μM, respectively. Three parallel wells were used for each concentration. The test was carried out 24 hours later, and the cell viability was detected using the CCK-8 kit.
as §1, with “Then, 3A-EP-DRI or 3A-EP-PEG4-PA” for “Then, polypeptide P2”, “and 50” for “and 100”, “(final concentrations),” for “(final concentration),”
(§4) RD cells were used to test the antiviral effect of polypeptides 3A-EP-DRI and 3A-EP-PEG4-PA. When RD cells reached 80% confluence, polypeptide 3A-EP-DRI or 3A-EP-PEG4-PA was added at concentrations of 0 μM (control group), 0.01 μM, 0.1 μM, 1 μM, 10 μM, and 50 μM, respectively. Three parallel wells were used for each concentration. The test was carried out 24 hours later, and the cell viability was detected using the CCK-8 kit. […]

Series [2] has as its system RD cells. In words: Cytotoxicity by CCK-8 in RD cells. It counts as cell-based. The following applies: RD cells; for cytotoxicity, result in words: CCK-8, 24 h; for Cell viability (%): 24 h. How it is done: as §1
as §1, with “P1” for “P2”, “concentrations),” for “concentration),”
as §2
as §1, with “3A-TAT-EP” for “P2”, “concentrations),” for “concentration),”
as §3
as §1, with “Then, 3A-EP-DRI or 3A-EP-PEG4-PA” for “Then, polypeptide P2”, “and 50” for “and 100”, “(final concentrations),” for “(final concentration),”
as §4

Where [3] appears, read: RD cells, 24 h, untreated = 100%, read-out: Cell viability (%).
Where [4] appears, read: RD cells, read-out: Cell viability (%).
Setting [5] is: Table 1 summary, cell line not given, read-out: CC50.

Consider `CC[C@@H](C)[C@@H](NC(=O)[C@H]1CCCN1C(C)=O)C(=O)N[C@@H](C(=O)N[C@H](Cc1c[nH]c2ccccc12)C(=O)NCC(=O)N[C@H](CCC(N)=O)C(=O)N[C@H](CCC(=O)O)C(=O)N[C@H](CCCNC(=N)N)C(=O)N[C@H](CS)C(=O)N[C@H](Cc1ccc(O)cc1)C(=O)N[C@H](CCC(N)=O)C(=O)N[C@H](CCCNC(=N)N)C(=O)N[C@@H](C(=O)N[C@H](CCC(=O)O)C(=O)N[C@H](CCC(=O)O)C(=O)N1CCC[C@@H]1C(=O)N1CCC[C@@H]1C(=O)N[C@H](CCCNC(=N)N)C(=O)N[C@H](CCCNC(=N)N)C(=O)N[C@H](CCCNC(=N)N)C(=O)N[C@H](CCC(N)=O)C(=O)N[C@H](CCCNC(=N)N)C(=O)N[C@H](CCCNC(=N)N)C(=O)N[C@H](CCCCN)C(=O)N[C@H](CCCCN)C(=O)N[C@H](CCCNC(=N)N)C(=O)NCC(=O)N[C@H](Cc1ccc(O)cc1)C(N)=O)C(C)C)[C@H](C)CC` [3A-EP-DRI], for which, in series [1] (setting [3]), the viability at 24 h, 0.01 µM is 106%; the viability at 24 h, 0.1 µM amounted to 95.9%; the viability at 24 h, 1 µM turned out to be 91.3%; the viability at 24 h, 10 µM worked out at 95.7%. In series [1] (setting [4]), the viability at 24 h, 20 µM was 101%; the viability at 24 h, 30 µM was 99%; the viability at 24 h, 40 µM amounted to 89%; the viability at 24 h, 50 µM was determined as 78.5%. Moreover, in series [1] (setting [5]), the CC50 at 24 h was over 100 µM. For the same molecule, the “cytotoxicity, result in words” value in series [2] is given as “not toxic to cells within 50 μM”.

Consider `CCCCCCCCCCCCCCCC(=O)NCCCC[C@H](NC(=O)CCOCCOCCOCCOCCNC(=O)[C@H](CCCCN)NC(=O)[C@H](C)NC(=O)[C@@H]1CCCN1C(=O)[C@@H](NC(=O)[C@@H](NC(=O)[C@H](Cc1c[nH]c2ccccc12)NC(=O)CNC(=O)[C@H](CCC(N)=O)NC(=O)[C@H](CCC(=O)O)NC(=O)[C@H](CCCNC(=N)N)NC(=O)[C@H](CS)NC(=O)[C@H](Cc1ccc(O)cc1)NC(=O)[C@H](CCC(N)=O)NC(=O)[C@H](CCCNC(=N)N)NC(=O)[C@@H](NC(=O)[C@H](CCC(=O)O)NC(=O)[C@@H](N)CCC(=O)O)C(C)C)[C@@H](C)CC)[C@@H](C)CC)C(=O)O` [3A-EP-PEG4-PA], for which, in series [1] (setting [3]), the viability at 24 h, 0.01 µM amounted to 107%; the viability at 24 h, 0.1 µM stood at 94.9%; the viability at 24 h, 1 µM was determined as 89.9%; the viability at 24 h, 10 µM was 95.3%. For the same molecule, in series [1] (setting [4]), the viability at 24 h, 20 µM stood at 98.4%; the viability at 24 h, 30 µM came to 99.5%; the viability at 24 h, 40 µM is 99.3%; the viability at 24 h, 50 µM turned out to be 94.8%. In addition, the CC50 at 24 h in series [1] (setting [5]) was over 100 µM. In series [2], the “cytotoxicity, result in words” value was “not toxic to cells within 50 μM”.

`CC(=O)N[C@H](CCCNC(=N)N)C(=O)N[C@H](CS)C(=O)N[C@H](Cc1ccc(O)cc1)C(=O)N[C@H](CCC(N)=O)C(=O)N[C@H](CCCNC(=N)N)C(=O)N[C@@H](C(=O)N[C@H](CCC(=O)O)C(=O)N[C@H](CCC(=O)O)C(=O)N1CCC[C@@H]1C(=O)N1CCC[C@@H]1C(=O)N[C@H](CCCNC(=N)N)C(=O)N[C@H](CCCNC(=N)N)C(=O)N[C@H](CCCNC(=N)N)C(=O)N[C@H](CCC(N)=O)C(=O)N[C@H](CCCNC(=N)N)C(=O)N[C@H](CCCNC(=N)N)C(=O)N[C@H](CCCCN)C(=O)N[C@H](CCCCN)C(=O)N[C@H](CCCNC(=N)N)C(=O)NCC(=O)N[C@H](Cc1ccc(O)cc1)C(N)=O)C(C)C` [ER-DRI] (Ac-[dR][dC][dY][dQ][dR][dV][dE][dE][dP][dP][dR][dR][dR][dQ][dR][dR][dK][dK][dR]G[dY]-NH2): the viability at 24 h, 0.46875 µM in series [1] (RD cells, 0.46875 μM, 24 h, read-out: Cell viability (%)) came out at 103%. In series [1] (RD cells, 2.34375 μM, 24 h, read-out: Cell viability (%)), the viability at 24 h, 2.34375 µM was 104%. Also, the viability at 24 h, 4.6875 µM in series [1] (RD cells, 4.6875 μM, 24 h, read-out: Cell viability (%)) turned out to be 101%. In addition, the viability at 24 h, 9.375 µM in series [1] (RD cells, 9.375 μM, 24 h, read-out: Cell viability (%)) came to 96%. Moreover, in series [1] (RD cells, 18.75 μM, 24 h, read-out: Cell viability (%)), the viability at 24 h, 18.75 µM amounted to 95.8%. Besides, the viability at 24 h, 37.5 µM in series [1] (RD cells, 37.5 μM, 24 h, read-out: Cell viability (%)) came out at 86%. Besides, the viability at 24 h, 75 µM in series [1] (RD cells, 75 μM, 24 h, read-out: Cell viability (%)) was determined as 68.9%. Moreover, the viability at 24 h, 150 µM in series [1] (RD cells, 150 μM, 24 h, read-out: Cell viability (%)) turned out to be 34%. For the same molecule, the viability at 24 h, 300 µM in series [1] (RD cells, 300 μM, 24 h, read-out: Cell viability (%)) worked out at 18.2%. Further, the CC50 at 24 h in series [1] (RD cells, CCK-8, 24 h, Example 15, read-out: 50% cytotoxic concentration (CC50)) was found to be 117 µM. Also, the “Cell viability (%)” value in series [2] (0.46875 μM) was 100.2% and 99.28%; in series [2] (2.34375 μM), 98.83% and 96.33%; in series [2] (4.6875 μM), 98.51% and 97.63%; in series [2] (9.375 μM), 96.79% and 94.15%; in series [2] (18.75 μM) it was 91.14% and 89.01%; in series [2] (37.5 μM) it was 86.77% and 86.97%. Further, the “Cell viability (%)” value was 70.42% and 71.95% in series [2] (75 μM); 34.62% and 34.08% in series [2] (150 μM); 17.58% and 18.69% in series [2] (300 μM). Further, in series [2], the “cytotoxicity, result in words” value is “very low toxicity”.

As to RRRRRRRREEVRQYCRDQ [P2], the viability at 24 h, 0.01 µM in series [1] (setting [3]) stood at 98%. Moreover, the viability at 24 h, 0.1 µM in series [1] (setting [3]) was determined as 94.4%. In series [1] (setting [3]), the viability at 24 h, 1 µM stood at 105%. In series [1] (setting [3]), the viability at 24 h, 10 µM was found to be 96.6%. The viability at 24 h, 100 µM in series [1] (RD cells, 100 μM polypeptide, 24 h, untreated = 100%, read-out: Cell viability (%)) was 90.1%. For the same molecule, the CC50 at 24 h in series [1] (setting [5]) was over 100 µM. Also, the “Cell viability (%)” value in series [2] (0.01 μM polypeptide, untreated = 100%) was 104.6% and 102.7%; in series [2] (0.1 μM polypeptide, untreated = 100%), 104% and 100.6%; in series [2] (1 μM polypeptide, untreated = 100%) it was 105.4% and 98.81%; in series [2] (10 μM polypeptide, untreated = 100%), 101.1% and 99.03%; in series [2] (100 μM polypeptide, untreated = 100%) it was 106.8% and 94.07%. For the same molecule, in series [2], the “cytotoxicity, result in words” value is given as “not toxic to cells within 100 μM”.
